# Key:
# [1] = Compound was tested for the inhibition of Escherichia coli glutamyl-t-RNA synthetase
# [2] = Compound was tested for the inhibition of aminoacyl tRNA Synthetase
Ki [1] [µM],Compound,Ki [2] [µM]
11400,NC(CCC(=O)O)C(=O)OC[C@@H]1CCCN1 (stereo not given in full),
380,NC(CCC(=O)O)C(=O)OC[C@H]1CCCN1 (stereo not given in full),

# The remaining lines, values behind:
Compound,Ki [1] [µM],Ki [2] [µM]
NC(CCC(=O)O)C(=O)OC[C@H]1OC(O)[C@H](O)[C@@H]1O (stereo not given in full),500,
"NC(CCC(=O)O)C(=O)OC[C@H]1C[C@@H](O)C[C@@H](CO)N1 (stereo partly drawn) [4-ammonio-5-{[(2R,4S,6S)-4-hydroxy-6-(hydroxymethyl)piperidin-2-yl]methoxy}-5-oxopentanoate]",20,
COc1cc(CNC(=O)CCCC/C=C/C(C)C)ccc1O [Zostrix],,42

# Source: BindingDB's records for doi:10.1016/S0960-894X(97)00434-4 (1997)
